Laboratory results: US8211828B2 (priority 2007, dated 2012)

Tested on: Phytophthora infestans
Assay: microbe, parasite or virus in culture
Assay type: cell-based
Conditions: 168 h, read-out: Observed effect (%)

Which inhibition of growth at 1 ppm does the source give for `Cc1nc2ncnn2c(N)c1CCC(C)CC(C)(C)C` (stereo not shown) [7-3] here?
Its inhibition of growth at 1 ppm is 31%.

With `CCCCCCCCc1c(C)nc2ncnn2c1N` [7-4] as the molecule, how does the inhibition of growth at 4 ppm read?
Its inhibition of growth at 4 ppm is 45%.

`CCCCCCCCc1c(CC)nc2nc(N)nn2c1N` [7-5] was tested. Which inhibition of growth at 0.25 ppm did it give?
Its inhibition of growth at 0.25 ppm is 27%.

What about the inhibition of growth at 4 ppm of the same molecule?
Its inhibition of growth at 4 ppm is 73%.

Which results are given for `CCCCCCCCc1c(CCC)nc2ncnn2c1N` [7-9]?
inhibition of growth at 1 ppm: 20%; inhibition of growth at 4 ppm: 58%

Which inhibition of growth at 16 ppm does the source give for `CC(CCc1c(C(F)(F)F)nc2ncnn2c1N)CC(C)(C)C` (stereo not shown) [7-12] here?
Its inhibition of growth at 16 ppm is 66%.

What does the source list for `COc1cc(-c2ccccc2NC(=O)c2cn(C)nc2C(F)(F)F)c(F)cc1Cl` [Compound 3-1, N-(2′-fluoro-4′-chloro-5′-methoxybiphenyl-2-yl)-3-trifluoromethyl-1-methyl-1H-pyrazole-4-carboxamide]?
inhibition of growth at 1 ppm: 0%; inhibition of growth at 4 ppm: 0%; inhibition of growth at 16 ppm: 4%

Which results are given for `Cn1cc(C(=O)Nc2ccccc2-c2cc(F)c(F)c(F)c2)c(C(F)(F)F)n1` [Compound 3-3, N-(3′,4′,5′-trifluorobiphenyl-2-yl)-3-trifluoromethyl-1-methyl-1H-pyrazole-4-carboxamide]?
inhibition of growth at 0.25 ppm: 0%; inhibition of growth at 1 ppm: 0%; inhibition of growth at 4 ppm: 0%

How did the inhibition of growth at 1 ppm turn out when `COc1cc(-c2ccccc2NC(=O)c2cn(C)nc2C(F)F)c(F)cc1Cl` [Compound 3-6, N-(2′-fluoro-4′-chloro-5′-methoxybiphenyl-2-yl)-3-difluoromethyl-1-methyl-1H-pyrazole-4-carboxamide] was run?
The inhibition of growth at 1 ppm was 0%.

And the inhibition of growth at 4 ppm?
The inhibition of growth at 4 ppm was 3%.

What about the inhibition of growth at 16 ppm of the same molecule?
Its inhibition of growth at 16 ppm is 18%.

Which results are given for `Cn1cc(C(=O)Nc2ccccc2-c2ccc(F)c(F)c2F)c(C(F)(F)F)n1` [Compound 3-7, N-(2′,3′,4′-trifluorobiphenyl-2-yl)-3-trifluoromethyl-1-methyl-1H-pyrazole-4-carboxamide]?
inhibition of growth at 1 ppm: 1%; inhibition of growth at 4 ppm: 4%

For `Cc1cc(-c2ccccc2NC(=O)c2cn(C)nc2C(F)F)c(F)cc1Cl` [Compound 3-8, N-(2′-fluoro-4′-chloro-5′-methylbiphenyl-2-yl)-3-difluoromethyl-1-methyl-1H-pyrazole-4-carboxamide], which inhibition of growth at 4 ppm is on record?
The inhibition of growth at 4 ppm was 10%.

What about the inhibition of growth at 16 ppm of the same molecule?
The inhibition of growth at 16 ppm was 20%.

For `Cn1cc(C(=O)Nc2ccccc2-c2cc(F)c(F)c(F)c2)c(C(F)F)n1` [Compound 3-9, N-(3′,4′,5′-trifluorobiphenyl-2-yl)-3-difluoromethyl-1-methyl-1H-pyrazole-4-carboxamide], which inhibition of growth at 4 ppm is on record?
The inhibition of growth at 4 ppm was 9%.

With `Cn1cc(C(=O)Nc2ccccc2-c2cc(F)c(F)cc2F)c(C(F)F)n1` [Compound 3-10, N-(2′,4′,5′-trifluorobiphenyl-2-yl)-3-difluoromethyl-1-methyl-1H-pyrazole-4-carboxamide] as the molecule, how does the inhibition of growth at 1 ppm read?
The inhibition of growth at 1 ppm was 1%.

And the inhibition of growth at 4 ppm?
The inhibition of growth at 4 ppm was 6%.

For `Cn1cc(C(=O)Nc2ccccc2-c2cc(F)c(F)c(F)c2)c(CF)n1` [Compound 3-11, N-(3′,4′,5′-trifluorobiphenyl-2-yl)-3-fluoromethyl-1-methyl-1H-pyrazole-4-carboxamide], which inhibition of growth at 1 ppm is on record?
The inhibition of growth at 1 ppm was 7%.

And the inhibition of growth at 16 ppm?
Its inhibition of growth at 16 ppm is 9%.

With `Cn1cc(C(=O)Nc2ccccc2-c2ccc(F)c(F)c2F)c(CF)n1` [Compound 3-14, N-(2′,3′,4′-trifluorobiphenyl-2-yl)-3-fluoromethyl-1-methyl-1H-pyrazole-4-carboxamide] as the molecule, how does the inhibition of growth at 1 ppm read?
The inhibition of growth at 1 ppm was 3%.

What about the inhibition of growth at 4 ppm of the same molecule?
Its inhibition of growth at 4 ppm is 11%.

What about the inhibition of growth at 16 ppm of the same molecule?
Its inhibition of growth at 16 ppm is 18%.

Tested on: Puccinia recondita
Assay: Curative activity against brown rust of wheat caused by Puccinia recondita (greenhouse)
Assay type: in vivo
Conditions: single active compound, 0.25 ppm, control 90% infection
Description: The expected efficacies of active compound combinations were determined using Colby's formula (Colby, S. R. “Calculating synergistic and antagonistic responses of herbicide combinations”, Weeds, 15, 20-22, 1967) and compared with the observed efficacies. Colby's formula: E=x+y−x·y/100 • E expected efficacy, expressed in % of the untreated control, when using the mixture of the active compounds A and B at the concentrations a and b; • x efficacy, expressed in % of the untreated control, when using the active compound A at the concentration a; • y efficacy, expressed in % of the untreated control, when using the active compound B at the concentration b. Micro Tests
The active compounds were separately or jointly prepared as a stock solution comprising 25 mg of active compound which was made up to 10 ml using a mixture of acetone and/or dimethyl sulfoxide and the emulsifier Uniperol® EL (wetting agent having emulsifying and dispersing action based on ethoxylated alkylphenols) in a volume ratio of solvent/emulsifier of 99 to 1. The mixture was then made up with water to 100 ml. This stock solution was diluted with the solvent/emulsifier/water mixture described to the concentration of active compound stated below.
Leaves of potted wheat seedlings were inoculated with a spore suspension of brown rust (Puccinia recondita). The pots were then placed in a chamber with high atmospheric humidity (90 to 95%) and 20 to 22° C. for 24 hours. During this time, the spores germinated and the germ tubes penetrated into the leaf tissue. The next day, the infected plants were sprayed to runoff point with the active compound solution described above at the active compound concentration stated below. After the spray coating had dried on, the test plants were cultivated in a greenhouse at temperatures between 20 and 22° C. and at 65 to 70% relative atmospheric humidity for 7 days. The extent of the rust fungus development on the leaves was then determined.
(§1) The visually determined percentages of infected leaf areas were converted into efficacies in % of the untreated control.
The efficacy (E) is calculated as follows using Abbot's formula: Abbot's formula: E=(1−α/β)·100 • α corresponds to the fungicidal infection of the treated plants in % and • β corresponds to the fungicidal infection of the untreated (control) plants in %
An efficacy of 0 means that the infection level of the treated plants corresponds to that of the untreated control plants; an efficacy of 100 means that the treated plants were not infected.

With `Cn1cc(C(=O)Nc2ccccc2-c2cc(F)c(F)c(F)c2)c(C(F)F)n1` [Compound 3-9, N-(3′,4′,5′-trifluorobiphenyl-2-yl)-3-difluoromethyl-1-methyl-1H-pyrazole-4-carboxamide] as the molecule, how does the “Observed effect (%)” value read?
The value was 0%.

Same assay, conditions: single active compound, 1 ppm, control 90% infection

For `CCCCCCCCc1c(CC)nc2nc(N)nn2c1N` [7-5], which “Observed effect (%)” value is on record?
The value was 0%.

For `CCCCCCCCc1nc2ncnn2c(N)c1CC` [7-6], which “Observed effect (%)” value is on record?
The value was 0%.

How did the “Observed effect (%)” value turn out when `CCc1nc2ncnn2c(N)c1CCC(C)CC(C)(C)C` (stereo not shown) [7-8] was run?
The value was 0%.

Tested on: Puccinia recondita
Assay: Protective activity against Puccinia recondita on wheat (brown rust of wheat) (greenhouse)
Assay type: in vivo
Conditions: single active compound, 0.25 ppm, control 80% infection
Description: The expected efficacies of active compound combinations were determined using Colby's formula (Colby, S. R. “Calculating synergistic and antagonistic responses of herbicide combinations”, Weeds, 15, 20-22, 1967) and compared with the observed efficacies. Colby's formula: E=x+y−x·y/100 • E expected efficacy, expressed in % of the untreated control, when using the mixture of the active compounds A and B at the concentrations a and b; • x efficacy, expressed in % of the untreated control, when using the active compound A at the concentration a; • y efficacy, expressed in % of the untreated control, when using the active compound B at the concentration b. Micro Tests […]
as §1
The efficacy (E) is calculated as follows using Abbot's formula: Abbot's formula: E=(1−α/β)·100 • α corresponds to the fungicidal infection of the treated plants in % and • β corresponds to the fungicidal infection of the untreated (control) plants in % […]
Leaves of potted wheat seedlings were sprayed to runoff point with an aqueous suspension having the active compound concentration stated below. […] The extent of the rust fungus development on the leaves was then determined visually.

For `Cn1cc(C(=O)Nc2ccccc2-c2cc(F)c(F)c(F)c2)c(C(F)F)n1` [Compound 3-9, N-(3′,4′,5′-trifluorobiphenyl-2-yl)-3-difluoromethyl-1-methyl-1H-pyrazole-4-carboxamide], which “Observed effect (%)” value is on record?
Its value is 50%.

Same assay, conditions: single active compound, 1 ppm, control 80% infection

How did the “Observed effect (%)” value turn out when `Cc1nc2ncnn2c(N)c1-c1ccc(Cl)c(Cl)c1` [7-1] was run?
Its value is 0%.
